In patent US11236086B2, “Substituted pyrrolopyridines as inhibitors of activin receptor-like kinase” (BLUEPRINT MEDICINES CORPORATION, priority 2017, dated 2022):

Key:
[1] = target: T1, ALK2R206H (mutant ALK2, N-terminally tagged with GST) (Homo sapiens, UniProt Q04771, R206H); assay: ALK binding assay (LANTHASCREEN TR-FRET competitive binding, displacement of Kinase Tracer 178); conditions: read-out: Binding Assay (IC50 class)
T1 construct: purchased Carna Bioscience or ThermoFisher 09-148 or PV6232
T1 sequence (Q04771 21-509 R206H): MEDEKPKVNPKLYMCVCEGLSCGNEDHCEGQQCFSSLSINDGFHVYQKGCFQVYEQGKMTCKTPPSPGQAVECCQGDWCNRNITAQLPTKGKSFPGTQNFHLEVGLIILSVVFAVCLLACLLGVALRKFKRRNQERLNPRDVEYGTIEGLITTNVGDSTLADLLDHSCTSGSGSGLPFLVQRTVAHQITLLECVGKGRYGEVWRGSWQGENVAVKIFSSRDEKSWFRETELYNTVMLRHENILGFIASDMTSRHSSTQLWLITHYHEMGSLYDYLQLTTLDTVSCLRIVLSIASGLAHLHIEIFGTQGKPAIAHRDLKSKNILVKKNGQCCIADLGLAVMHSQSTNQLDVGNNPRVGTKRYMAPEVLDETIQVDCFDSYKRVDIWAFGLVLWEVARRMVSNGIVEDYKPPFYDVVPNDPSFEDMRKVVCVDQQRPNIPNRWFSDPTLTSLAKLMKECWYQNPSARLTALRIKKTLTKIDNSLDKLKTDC
How it was run: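 Competitive displacement of Kinase Tracer 178 (50 nM) from N-terminally GST-tagged mutant ALK2 R206H (2-5 nM) by compound, detected by TR-FRET with Eu-anti-GST antibody (4-10 nM). 30 min room temperature incubation, 1% DMSO final; normalized signal fitted to 4-parameter log dose response for IC50.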

human ALK2 R206H = target: T2, human ALK2 R206H (Homo sapiens, UniProt Q04771, R206H); assay: Cell-based ALK2-R206H cell activity assay (Smad1-Ser463/Ser465 phosphorylation by AlphaLISA in HEK293-ALK2-R206H cells); conditions: phospho-Smad1 AlphaLISA, read-out: Cell Line (Cell Assay, IC50 class)
T2 construct: expressed in transfected cells; host or cells: HEK293 (ATCC CRL1573), lentivirus transduction, blasticidin selection
T2 sequence (Q04771 21-509 R206H): T1 sequence (Q04771 21-509 R206H)
How it was run: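 IC50 comes from a 10-point curve, scaled between DMSO and 1 μM LDN193189 controls, of lysate phospho-Smad1 (Ser463/465) measured by AlphaLISA. Compounds (top 10 μM or 1 μM, 3-fold steps, duplicates) were given 2-3 h to serum-starved HEK293 cells that stably express FLAG-tagged human ALK2 R206H.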

| IC50 [1] | IC50 (human ALK2 R206H) | Compound |
| --- | --- | --- |
| ≤ 10 nM | ≤ 100 nM | CS(=O)(=O)N1CCc2nc(-c3cc4c(N5CCN(C(=O)OC6COC6)CC5)ccnc4[nH]3)sc2C1 [Compound 474] |
| ≤ 10 nM | ≤ 100 nM | Cn1cc(-c2[nH]c3nccc(N4CCN(C(=O)O[C@H]5CCOC5)CC4)c3c2C#N)cn1 [Compound 289] |
| ≤ 10 nM | ≤ 100 nM | O=C(OC1COC1)N1CCN(c2ccnc3[nH]c(-c4cnn(C(F)F)c4)c(Cl)c23)CC1 [Compound 407] |
| ≤ 10 nM | ≤ 100 nM | CCOC(=O)N1CCN(c2ccnc3[nH]c(-c4ccc(C5(O)CCOCC5)cc4C#N)cc23)CC1 [Compound 441] |
| ≤ 10 nM | 100 to 500 nM | Cc1c(-c2cc3c(N4CCN(C(=O)OC5COC5)CC4)ccnc3[nH]2)cnn1C(C)C [Compound 305] |
| ≤ 10 nM | ≤ 100 nM | O=C(C1CC1)N1CCN(c2ccnc3[nH]c(-c4ccc(OCCN5CCCC5)cc4)cc23)CC1 [Compound 421] |
| ≤ 10 nM | ≤ 100 nM | CC(C)N1CCC(c2ccc(-c3cc4c(N5CCN(C(=O)OC6COC6)CC5)ccnc4[nH]3)cc2)CC1 [Compound 467] |
| ≤ 10 nM | ≤ 100 nM | Cn1cc(-c2[nH]c3nccc(N4CCN(C(=O)OCC(F)F)CC4)c3c2Cl)cn1 [Compound 308] |
| ≤ 10 nM | ≤ 100 nM | CCN1CCC(c2ccc(-c3cc4c(N5CCN(C(=O)C6CC6)CC5)ccnc4[nH]3)cc2)C(F)(F)C1 (stereo not shown) [Compound 460] |
| ≤ 10 nM | 100 to 500 nM | CCOC(=O)N1CCN(c2ccnc3[nH]c(-c4cnn(S(C)(=O)=O)c4)cc23)CC1 [Compound 281] |
| ≤ 10 nM | ≤ 100 nM | Cn1cc(-c2cc3c(N4CCN(C(=O)OC5CCC5(F)F)CC4)ccnc3[nH]2)cn1 (stereo not shown) [Compound 262] |
| ≤ 10 nM | ≤ 100 nM | Cc1nc(-c2[nH]c3nccc(N4CCN(C(=O)O[C@H]5C[C@H](F)C5)CC4)c3c2C#N)cn1C [Compound 357] |

Further lines, the molecule ahead of its results:

| Compound | IC50 [1] | IC50 (human ALK2 R206H) |
| --- | --- | --- |
| CCOC(=O)N1CCN(c2ccnc3[nH]c(-c4cnn(C)c4)cc23)CC1 [Compound 11] | ≤ 10 nM | 100 to 500 nM |
| COc1nc(-c2cc3c(N4CCN(C(=O)OC5COC5)CC4)ccnc3[nH]2)cs1 [Compound 259] | ≤ 10 nM | 100 to 500 nM |
| Cn1cc(-c2cc3c(N4CCN(C(=O)O[C@H]5C[C@H](C#N)C5)CC4)ccnc3[nH]2)cn1 [Compound 202] | ≤ 10 nM | ≤ 100 nM |
| CCOC(=O)N1CCN(c2ccnc3[nH]c(-c4cn(C)nc4C#N)cc23)CC1 [Compound 69] | ≤ 10 nM | ≤ 100 nM |
| Cn1cc(-c2cc3c(N4CCN(C(=O)[C@H]5C[C@H](C#N)C5)CC4)ccnc3[nH]2)cn1 [Compound 123] | ≤ 10 nM | 100 to 500 nM |
| Cc1csc(-c2cc3c(N4CCN(C(=O)OC5COC5)CC4)ccnc3[nH]2)n1 [Compound 173] | ≤ 10 nM | 100 to 500 nM |
| Cc1c(-c2cnn(C)c2)[nH]c2nccc(N3CCN(C(=O)O[C@H]4C[C@H](F)C4)CC3)c12 [Compound 245] | ≤ 10 nM | ≤ 100 nM |
| CCOc1ccc(-c2cc3c(N4CCN(C(=O)C5CC5)CC4)ccnc3[nH]2)cc1 [Compound 127] | 10 to 50 nM | 100 to 500 nM |
| N#Cc1cnc(-c2cc3c(N4CCN(C(=O)OC5COC5)CC4)ccnc3[nH]2)nc1 [Compound 198] | ≤ 10 nM | 100 to 500 nM |
| Cc1csc(-c2cc3c(N4CCN(C(=O)C5CC5)CC4)ccnc3[nH]2)n1 [Compound 35] | ≤ 10 nM | 100 to 500 nM |
| Cn1cc(-c2[nH]c3nccc(N4CCN(C(=O)OC5CCC5)CC4)c3c2C#N)cn1 [Compound 200] | ≤ 10 nM | ≤ 100 nM |
| CCOC(=O)N1CCN(c2ccnc3[nH]c(-c4ccccn4)c(Cl)c23)CC1 [Compound 115] | ≤ 10 nM | ≤ 100 nM |
| O=C(C1CC1)N1CCN(c2ccnc3[nH]c(-c4ncco4)cc23)CC1 [Compound 1] | 10 to 50 nM | > 500 nM |
| CCOC(=O)N1CCN(c2ccnc3[nH]c(-c4cn(C)nn4)cc23)CC1 [Compound 13] | ≤ 10 nM | 100 to 500 nM |
